Measured values reported in US9365576B2, “Pyrrolopyrrolidinone compounds” (Novartis AG, priority 2012, dated 2016).

Biological target: human MDM2 protein (amino acids 2-188) (Homo sapiens (Human), UniProt Q00987)
Experiment: TR-FRET assay, p53-MDM2 Assay 2 (modified)
Format: binding
Details: TR-FRET; 0.1 nM MDM2, 0.1 nM Europium labeled streptavidin, Tecan genios Pro reader; read-out: IC50 p53-MDM2 Assay 2
Summary of the method: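 Biotinylated human MDM2 (aa 2–188, 1.25 nM) was preincubated 15 min at room temperature with 0.625 nM Eu-streptavidin, then 10 nM Cy5-p53 peptide (aa 18–26) added for 15 min. TR-FRET ratio 665/620 nm (excitation 340 nm) was read; IC50 came from curve fitting.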

Sequence of human MDM2 protein (amino acids 2-188) (Q00987 2-188): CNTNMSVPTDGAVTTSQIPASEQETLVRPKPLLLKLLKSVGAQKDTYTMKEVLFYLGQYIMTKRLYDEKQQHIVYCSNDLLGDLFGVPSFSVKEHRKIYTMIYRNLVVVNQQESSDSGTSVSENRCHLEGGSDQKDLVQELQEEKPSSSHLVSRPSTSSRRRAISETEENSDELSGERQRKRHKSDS

Structure (SMILES) | IC50
COc1nc(N)ncc1-c1cc2c(n1C(C)C)C(c1ccc(Cl)cc1C)N(c1cc(Cl)c(=O)n(C)c1)C2=O (stereo not drawn) [Example 148, 2-(2-Amino-4-methoxy-pyrimidin-5-yl)-5-(5-chloro-1-methyl-6-oxo-1,6-dihydro-pyridin-3-yl)-6-(4-chloro-2-methyl-phenyl)-1-isopropyl-5,6-dihydro-1H-pyrrolo[3,4-b]pyrrol-4-one] | 0.592 nM
COc1cn(C)c(=O)cc1-c1cc2c(n1C(C)C)C(c1ccc(Cl)cc1)N(c1cc(Cl)ccc1C)C2=O (stereo not drawn) [Example 149, 5-(5-Chloro-2-methyl-phenyl)-6-(4-chloro-phenyl)-1-isopropyl-2-(5-methoxy-1-methyl-2-oxo-1,2-dihydro-pyridin-4-yl)-5,6-dihydro-1H-pyrrolo[3,4-b]pyrrol-4-one] | 0.11 nM
COc1cn(C)c(=O)cc1-c1cc2c(n1C(C)C)C(c1ccc(Cl)cc1)N(c1cc(Cl)c(=O)n(C)c1)C2=O (stereo not drawn) [Example 150, 5-(5-Chloro-1-methyl-6-oxo-1,6-dihydro-pyridin-3-yl)-6-(4-chloro-phenyl)-1-isopropyl-2-(5-methoxy-1-methyl-2-oxo-1,2-dihydro-pyridin-4-yl)-5,6-dihydro-1H-pyrrolo[3,4-b]pyrrol-4-one] | 0.254 nM
CNc1ncc(-c2cc3c(n2C(C)C)C(c2ccc(Cl)cc2C)N(c2cc(Cl)c(=O)n(C)c2)C3=O)c(OC)n1 (stereo not drawn) [Example 151, 5-(5-Chloro-1-methyl-6-oxo-1,6-dihydro-pyridin-3-yl)-6-(4-chloro-2-methyl-phenyl)-1-isopropyl-2-(4-methoxy-2-methylamino-pyrimidin-5-yl)-5,6-dihydro-1H-pyrrolo[3,4-b]pyrrol-4-one] | 0.243 nM
CNc1ncc(-c2cc3c(n2C(C)C)C(c2ccc(Cl)cc2)N(c2c[nH]c(=O)c(Cl)c2)C3=O)c(OC)n1 (stereo not drawn) [Example 152, 5-(5-Chloro-6-oxo-1,6-dihydro-pyridin-3-yl)-6-(4-chloro-phenyl)-1-isopropyl-2-(4-methoxy-2-methylamino-pyrimidin-5-yl)-5,6-dihydro-1H-pyrrolo[3,4-b]pyrrol-4-one] | 0.166 nM
COc1ncc(-c2cc3c(n2C(C)C)C(c2ccc(C#N)cc2)N(c2cc(Cl)c(=O)n(C)c2)C3=O)c(OC)n1 (stereo not drawn) [Example 153, 4-[5-(5-Chloro-1-methyl-6-oxo-1,6-dihydro-pyridin-3-yl)-2-(2,4-dimethoxy-pyrimidin-5-yl)-1-isopropyl-4-oxo-1,4,5,6-tetrahydro-pyrrolo[3,4-b]pyrrol-6-yl]-benzonitrile] | 0.422 nM
COc1nc(N)ncc1-c1cc2c(n1C(C)C)[C@H](c1ccc(C#N)cc1)N(c1cccc(Cl)c1F)C2=O [Example 154, 4-[(S)-2-(2-Amino-4-methoxy-pyrimidin-5-yl)-5-(3-chloro-2-fluoro-phenyl)-1-isopropyl-4-oxo-1,4,5,6-tetrahydro-pyrrolo[3,4-b]pyrrol-6-yl]-benzonitrile] | 0.328 nM
COc1nc(N)ncc1-c1cc2c(n1C(C)C)[C@@H](c1ccc(C#N)cc1)N(c1cccc(Cl)c1F)C2=O [Example 155, 4-[(R)-2-(2-Amino-4-methoxy-pyrimidin-5-yl)-5-(3-chloro-2-fluoro-phenyl)-1-isopropyl-4-oxo-1,4,5,6-tetrahydro-pyrrolo[3,4-b]pyrrol-6-yl]-benzonitrile] | 43 nM
COc1ncc(-c2cc3c(n2C(C)C)C(c2ccc(Cl)cc2)N(c2cc(Cl)c(=O)n(C)c2F)C3=O)c(OC)n1 (stereo not drawn) [Example 156, 5-(5-Chloro-2-fluoro-1-methyl-6-oxo-1,6-dihydro-pyridin-3-yl)-6-(4-chloro-phenyl)-2-(2,4-dimethoxy-pyrimidin-5-yl)-1-isopropyl-5,6-dihydro-1H-pyrrolo[3,4-b]pyrrol-4-one] | 0.122 nM
COc1ncc(-c2cc3c(n2C(C)C)C(c2ccc(C#N)cc2)N(C2CCOCC2)C3=O)c(OC)n1 (stereo not drawn) [Example 157, 4-[2-(2,4-Dimethoxy-pyrimidin-5-yl)-1-isopropyl-4-oxo-5-(tetrahydro-pyran-4-yl)-1,4,5,6-tetrahydro-pyrrolo[3,4-b]pyrrol-6-yl]-benzonitrile] | 7.9 nM
COc1nc(N(C)C)ncc1-c1cc2c(n1C(C)C)C(c1ccc(C#N)cc1)N(C1CCOCC1)C2=O (stereo not drawn) [Example 158, 4-[2-(2-Dimethylamino-4-methoxy-pyrimidin-5-yl)-1-isopropyl-4-oxo-5-(tetrahydro-pyran-4-yl)-1,4,5,6-tetrahydro-pyrrolo[3,4-b]pyrrol-6-yl]-benzonitrile] | 1.34 nM
COc1nc(N(C)C)ncc1-c1cc2c(n1C(C)C)C(c1ccc(Cl)cc1)N(C1CN(C)C(=O)N(C)C1)C2=O (stereo not drawn) [Example 159, 6-(4-Chloro-phenyl)-2-(2-dimethylamino-4-methoxy-pyrimidin-5-yl)-5-(1,3-dimethyl-2-oxo-hexahydro-pyrimidin-5-yl)-1-isopropyl-5,6-dihydro-1H-pyrrolo[3,4-b]pyrrol-4-one] | 0.161 nM
COc1ncc(-c2cc3c(n2C(C)C)[C@H](c2ccc(Cl)cc2C)N(c2cc(Cl)c(=O)n(C)c2)C3=O)c(OC)n1 [Example 160, (S)-5-(5-Chloro-1-methyl-6-oxo-1,6-dihydro-pyridin-3-yl)-6-(4-chloro-2-methyl-phenyl)-2-(2,4-dimethoxy-pyrimidin-5-yl)-1-isopropyl-5,6-dihydro-1H-pyrrolo[3,4-b]pyrrol-4-one] | 0.144 nM
COc1ncc(-c2cc3c(n2C(C)C)[C@@H](c2ccc(Cl)cc2C)N(c2cc(Cl)c(=O)n(C)c2)C3=O)c(OC)n1 [Example 161, (R)-5-(5-Chloro-1-methyl-6-oxo-1,6-dihydro-pyridin-3-yl)-6-(4-chloro-2-methyl-phenyl)-2-(2,4-dimethoxy-pyrimidin-5-yl)-1-isopropyl-5,6-dihydro-1H-pyrrolo[3,4-b]pyrrol-4-one] | 308 nM
COc1ncc(-c2cc3c(n2C(C)C)[C@](C)(c2ccc(Cl)cc2)N(c2cc(Cl)c(=O)n(C)c2)C3=O)c(OC)n1 [Example 162, (S)-5-(5-Chloro-1-methyl-6-oxo-1,6-dihydro-pyridin-3-yl)-6-(4-chloro-phenyl)-2-(2,4-dimethoxy-pyrimidin-5-yl)-1-isopropyl-6-methyl-5,6-dihydro-1H-pyrrolo[3,4-b]pyrrol-4-one] | 49 nM
COc1ncc(-c2cc3c(n2C(C)C)[C@@](C)(c2ccc(Cl)cc2)N(c2cc(Cl)c(=O)n(C)c2)C3=O)c(OC)n1 [Example 163, (R)-5-(5-Chloro-1-methyl-6-oxo-1,6-dihydro-pyridin-3-yl)-6-(4-chloro-phenyl)-2-(2,4-dimethoxy-pyrimidin-5-yl)-1-isopropyl-6-methyl-5,6-dihydro-1H-pyrrolo[3,4-b]pyrrol-4-one] | 42.7 nM
COc1nc(N(C)C)ncc1-c1c(C#N)c2c(n1C(C)C)C(c1ccc(Cl)cc1)N(c1cc(Cl)c(=O)n(C)c1)C2=O (stereo not drawn) [Example 164, 5-(5-Chloro-1-methyl-6-oxo-1,6-dihydro-pyridin-3-yl)-6-(4-chloro-phenyl)-2-(2-dimethylamino-4-methoxy-pyrimidin-5-yl)-1-isopropyl-4-oxo-1,4,5,6-tetrahydro-pyrrolo[3,4-b]pyrrole-3-carbonitrile] | 0.121 nM
CNc1ncc(-c2cc3c(n2C(C)C)[C@H](c2ccc(C#N)cc2)N(c2cc(Cl)cn(C)c2=O)C3=O)c(OC)n1 [Example 165, 4-[(S)-5-(5-Chloro-1-methyl-2-oxo-1,2-dihydro-pyridin-3-yl)-1-isopropyl-2-(4-methoxy-2-methylamino-pyrimidin-5-yl)-4-oxo-1,4,5,6-tetrahydro-pyrrolo[3,4-b]pyrrol-6-yl]-benzonitrile] | 0.578 nM
